Measurements published in ChEMBL document CHEMBL5331050, “Spiro[benzoxazine-piperidin]-one derivatives as chitin synthase inhibitors and antifungal agents: Design, synthesis and biological evaluation” (Eur J Med Chem, 2022).
Values after ≈ are worked out from the molar mass of the structure shown.

Tests used:
Candida tropicalis = test: Inhibition of Candida tropicalis ATCC 750 chitin synthase using UDP-GlcNAc as substrate at 300 ug/ml incubated for 1 hrs by absorbance based assay relative to control; details: dose 300.0 µg/ml
Aspergillus flavus [1] = test: Antifungal activity against Aspergillus flavus ATCC 16870 assessed as fungal growth inhibition incubated for 24 hrs by CLSI protocol based broth microdilution method; assay type: functional
Aspergillus fumigatus [2] = test: Antifungal activity against Aspergillus fumigatus GIMCC 3.19 assessed as fungal growth inhibition incubated for 24 hrs by CLSI protocol based broth microdilution method; assay type: functional
Cryptococcus neoformans [3] = test: Antifungal activity against Cryptococcus neoformans ATCC 208821 assessed as fungal growth inhibition incubated for 24 hrs by CLSI protocol based broth microdilution method; assay type: functional
Candida albicans [4] = test: Antifungal activity against Candida albicans ATCC 76615 assessed as fungal growth inhibition incubated for 24 hrs by CLSI protocol based broth microdilution method; assay type: functional
[5] = Inhibition of Candida tropicalis ATCC 750 chitin synthase using UDP-GlcNAc as substrate incubated for 1 hrs by absorbance based assay
Aspergillus flavus [6] = test: Synergistic antifungal activity against Aspergillus flavus ATCC 16870 assessed as fungal growth inhibition incubated for 24 hrs in the presence of fluconazole by broth dilution based checkerboard method; assay type: functional
Candida albicans [7] = test: Synergistic antifungal activity against Candida albicans ATCC 76615 assessed as fungal growth inhibition incubated for 24 hrs in the presence of fluconazole by broth dilution based checkerboard method; assay type: functional
Aspergillus fumigatus [8] = test: Synergistic antifungal activity against Aspergillus fumigatus GIMCC 3.19 assessed as fungal growth inhibition incubated for 24 hrs in the presence of fluconazole by broth dilution based checkerboard method; assay type: functional
Cryptococcus neoformans [9] = test: Synergistic antifungal activity against Cryptococcus neoformans ATCC 208821 assessed as fractional inhibitory concentration index incubated for 24 hrs in the presence of fluconazole by broth dilution based checkerboard method; assay type: functional
Candida albicans [10] = test: Synergistic antifungal activity against Candida albicans ATCC 76615 assessed as fractional inhibitory concentration index incubated for 24 hrs in the presence of fluconazole by broth dilution based checkerboard method; assay type: functional
Aspergillus flavus [11] = test: Synergistic antifungal activity against Aspergillus flavus ATCC 16870 assessed as fractional inhibitory concentration index incubated for 24 hrs in the presence of fluconazole by broth dilution based checkerboard method; assay type: functional
Aspergillus fumigatus [12] = test: Synergistic antifungal activity against Aspergillus fumigatus GIMCC 3.19 assessed as fractional inhibitory concentration index incubated for 24 hrs in the presence of fluconazole by broth dilution based checkerboard method; assay type: functional
Cryptococcus neoformans [13] = test: Synergistic antifungal activity against Cryptococcus neoformans ATCC 208821 assessed as fungal growth inhibition incubated for 24 hrs in the presence of fluconazole by broth dilution based checkerboard method; assay type: functional

Compound | inhibition (Candida tropicalis) [%] | MIC (Aspergillus flavus [1]) [µg/mL] | MIC (Aspergillus fumigatus [2]) [µg/mL] | MIC (Cryptococcus neoformans [3]) [µg/mL] | MIC (Candida albicans [4]) [µg/mL] | IC50 [5] [µM] | MIC (Aspergillus flavus [6]) [µg/mL] | MIC (Candida albicans [7]) [µg/mL] | MIC (Aspergillus fumigatus [8]) [µg/mL] | fractional inhibitory concentration index (FICI) (Cryptococcus neoformans [9]) | fractional inhibitory concentration index (FICI) (Candida albicans [10]) | fractional inhibitory concentration index (FICI) (Aspergillus flavus [11]) | fractional inhibitory concentration index (FICI) (Aspergillus fumigatus [12]) | MIC (Cryptococcus neoformans [13]) [µg/mL]
COc1ccc2c(c1)C1(CCN(C(=O)/C=C/C(=O)Nc3ccc(C(F)(F)F)cc3C(F)(F)F)CC1)OC(=O)N2 | 30 | > 512 | > 512 | > 512 | 256 (≈ 459 µM) |  |  |  |  |  |  |  |  | 
COc1ccc2c(c1)C1(CCN(C(=O)CC(=O)Nc3ccc(Br)cc3)CC1)OC(=O)N2 | 18 | 256 (≈ 524 µM) | 256 (≈ 524 µM) | 256 (≈ 524 µM) | 512 (≈ 1050 µM) |  |  |  |  |  |  |  |  | 
COc1ccc(NC(=O)CCC(=O)N2CCC3(CC2)OC(=O)Nc2ccc(OC)cc23)cc1 | 17 | > 512 | 256 (≈ 565 µM) | 256 (≈ 565 µM) | > 512 |  |  |  |  |  |  |  |  | 
COc1ccc2c(c1)C1(CCN(C(=O)/C=C/C(=O)Nc3ccccc3)CC1)OC(=O)N2 | 69 | 53.3 (≈ 127 µM) | 53.3 (≈ 127 µM) | 64 (≈ 152 µM) | 64 (≈ 152 µM) | 280 | 64 | 32 | 26 | 1.125 | 1 | 1.125 | 0.55 | 16
COc1ccc2c(c1)C1(CCN(C(=O)CCC(=O)Nc3ccccc3)CC1)OC(=O)N2 | 6 | 256 (≈ 605 µM) | > 512 | > 512 | > 512 |  |  |  |  |  |  |  |  | 
COc1ccc(NC(=O)C(O)C(O)C(=O)N2CCC3(CC2)OC(=O)Nc2ccc(OC)cc23)cc1 (centres undefined) | 52 | 512 (≈ 1050 µM) | 256 (≈ 527 µM) | > 512 | > 512 |  |  |  |  |  |  |  |  | 
COc1ccc2c(c1)C1(CCN(C(=O)CC(=O)Nc3ccccc3)CC1)OC(=O)N2 | 16 | 256 (≈ 625 µM) | > 512 | 256 (≈ 625 µM) | 512 (≈ 1250 µM) |  |  |  |  |  |  |  |  | 
COc1ccc2c(c1)C1(CCN(C(=O)/C=C/C(=O)Nc3cccc4ccccc34)CC1)OC(=O)N2 | 46 | > 512 | > 512 | 256 (≈ 543 µM) | 256 (≈ 543 µM) |  |  |  |  |  |  |  |  | 
COc1ccc2c(c1)C1(CCN(C(=O)CCC(=O)Nc3ccc(Br)cc3)CC1)OC(=O)N2 | 23 | 256 (≈ 510 µM) | 512 (≈ 1020 µM) | 256 (≈ 510 µM) | 107 (≈ 212 µM) |  |  |  |  |  |  |  |  | 
COc1ccc2c(c1)C1(CCN(C(=O)C(O)C(O)C(=O)Nc3ccccc3)CC1)OC(=O)N2 (centres undefined) | 41 | 512 (≈ 1120 µM) | 512 (≈ 1120 µM) | > 512 | 512 (≈ 1120 µM) |  |  |  |  |  |  |  |  | 
COc1ccc2c(c1)C1(CCN(C(=O)/C=C/C(=O)Nc3ccccc3C)CC1)OC(=O)N2 | 14 | 512 (≈ 1180 µM) | > 512 | > 512 | 256 (≈ 588 µM) |  |  |  |  |  |  |  |  | 
COc1ccc(NC(=O)CC(=O)N2CCC3(CC2)OC(=O)Nc2ccc(OC)cc23)cc1 | 16 | > 512 | 256 (≈ 583 µM) | > 512 | 512 (≈ 1170 µM) |  |  |  |  |  |  |  |  | 
COc1ccc2c(c1)C1(CCN(C(=O)/C=C/C(=O)Nc3ccc(C)cc3)CC1)OC(=O)N2 | 65 | 256 (≈ 588 µM) | 256 (≈ 588 µM) | 256 (≈ 588 µM) | 128 (≈ 294 µM) | 370 |  |  |  |  |  |  |  | 
COc1ccc2c(c1)C1(CCN(C(=O)CCC(=O)Nc3ccc(C)cc3)CC1)OC(=O)N2 | 11 | 256 (≈ 585 µM) | > 512 | 256 (≈ 585 µM) | 128 (≈ 293 µM) |  |  |  |  |  |  |  |  | 
COc1ccc2c(c1)C1(CCN(C(=O)/C=C/C(=O)Nc3cc(C)cc(C)c3)CC1)OC(=O)N2 | 16 | 512 (≈ 1140 µM) | > 512 | > 512 | 512 (≈ 1140 µM) |  |  |  |  |  |  |  |  | 
COc1ccc2c(c1)C1(CCN(C(=O)/C=C/C(=O)Nc3ccccc3Cl)CC1)OC(=O)N2 | 36 | 32 (≈ 70.2 µM) | 32 (≈ 70.2 µM) | 32 (≈ 70.2 µM) | 16 (≈ 35.1 µM) |  | 13.3 | 16 | 64 | 0.625 | 1.125 | 1.42 | 2 | 16
COc1ccc2c(c1)C1(CCN(C(=O)CC(=O)Nc3ccc(C)cc3)CC1)OC(=O)N2 | 13 | > 512 | > 512 | > 512 | 512 (≈ 1210 µM) |  |  |  |  |  |  |  |  | 
COc1ccc2c(c1)C1(CCN(C(=O)C(O)C(O)C(=O)Nc3ccc(Br)cc3)CC1)OC(=O)N2 (centres undefined) | 43 | 512 (≈ 958 µM) | > 512 | 512 (≈ 958 µM) | > 512 |  |  |  |  |  |  |  |  | 
COc1ccc2c(c1)C1(CCN(C(=O)/C=C/C(=O)Nc3cccc([N+](=O)[O-])c3)CC1)OC(=O)N2 | 34 | 256 (≈ 549 µM) | 107 (≈ 229 µM) | 256 (≈ 549 µM) | 128 (≈ 274 µM) |  |  |  |  |  |  |  |  | 
COc1ccc2c(c1)C1(CCN(C(=O)/C=C/C(=O)Nc3ccc([N+](=O)[O-])cc3)CC1)OC(=O)N2 | 13 | > 512 | > 512 | > 512 | 512 (≈ 1100 µM) |  |  |  |  |  |  |  |  | 
COc1ccc2c(c1)C1(CCN(C(=O)/C=C/C(=O)Nc3ccc(C(F)(F)F)cc3)CC1)OC(=O)N2 | 15 | 128 (≈ 262 µM) | > 512 | 256 (≈ 523 µM) | 512 (≈ 1050 µM) |  |  |  |  |  |  |  |  | 
COc1ccc2c(c1)C1(CCN(C(=O)/C=C/C(=O)Nc3cccc(C)c3)CC1)OC(=O)N2 | 42 | > 512 | > 512 | > 512 | 256 (≈ 588 µM) |  |  |  |  |  |  |  |  | 
COc1ccc2c(c1)C1(CCN(C(=O)/C=C/C(=O)Nc3ccc(Cl)cc3)CC1)OC(=O)N2 | 51 | 256 (≈ 562 µM) | 128 (≈ 281 µM) | 512 (≈ 1120 µM) | 512 (≈ 1120 µM) |  |  |  |  |  |  |  |  | 
COc1ccc2c(c1)C1(CCN(C(=O)C(O)C(O)C(=O)Nc3ccc(C)cc3)CC1)OC(=O)N2 (centres undefined) | 43 | > 512 | 256 (≈ 545 µM) | > 512 | > 512 |  |  |  |  |  |  |  |  | 
COc1ccc2c(c1)C1(CCN(C(=O)/C=C/C(=O)Nc3ccccc3OC)CC1)OC(=O)N2 | 60 | 128 (≈ 284 µM) | 128 (≈ 284 µM) | 256 (≈ 567 µM) | 64 (≈ 142 µM) | 330 |  |  |  |  |  |  |  | 
COc1ccc2c(c1)C1(CCN(C(=O)/C=C/C(=O)Nc3ccccc3Br)CC1)OC(=O)N2 | 40 | 64 (≈ 128 µM) | 128 (≈ 256 µM) | 256 (≈ 512 µM) | 256 (≈ 512 µM) |  |  |  |  |  |  |  |  | 
COc1ccc2c(c1)C1(CCN(C(=O)/C=C/C(=O)Nc3ccccc3[N+](=O)[O-])CC1)OC(=O)N2 | 18 | 512 (≈ 1100 µM) | 256 (≈ 549 µM) | 256 (≈ 549 µM) | 512 (≈ 1100 µM) |  |  |  |  |  |  |  |  | 
COc1cccc(NC(=O)/C=C/C(=O)N2CCC3(CC2)OC(=O)Nc2ccc(OC)cc23)c1 | 37 | 128 (≈ 284 µM) | 128 (≈ 284 µM) | 64 (≈ 142 µM) | 256 (≈ 567 µM) |  |  |  |  |  |  |  |  | 
